Measurements published in paper PMC8157947, “Peptidic boronic acids are potent cell-permeable inhibitors of the malaria parasite egress serine protease SUB1” (Proceedings of the National Academy of Sciences of the …, 2021).
“And” between values parts separate entries of the source, which are not always exact repeats. Identical values can stand only once.

Tests used:
elastase = assay: Elastase inhibition assay (MeOSuc-AAPV-AMC cleavage); assay type: biochemical; settings: porcine elastase; estimated
Method: Assays for assessing inhibition of elastase a c t i vit y (from porcine pancreas; Sigm a-Aldrich E7885) were based on c leavage of the fluorogenic peptide substrate MeOSuc-AAPV-AMC (Sigm a- Aldrich […]
324740). Elastase was dissolved in 1 m M HCl, 2 m M CaCl2 to produce a stock solutio n of 1 mg/ml […]
(38.6 µM). F or inhibition as says , 100 µl of 1 µg/m l (38.6 nM) elastase in 25 m M T ris -HCl pH 8.2, […]
15 m M CaC l2 was d ispense d into we lls of whit e 9 6- we ll m icrowe ll p lates (Nunc), and pre- incubated […]
for 5 m in wi th com pound 3j at concentr ations ranging from 0-20 µM before addition of substrate […]
(10 µM f inal). F luorescence increase was m onitored continuousl y with tim e as above. PMSF was used as a positive inh ib itor control as above. All m easurem ents were perform ed in duplicate.

[1] = molecular target: T1, recombinant PfSUB1 (rPfSUB1) (Plasmodium falciparum, UniProt Q8I0V0); assay: rPfSUB1 fluorogenic peptide substrate cleavage inhibition assay; assay type: biochemical; settings: fluorogenic peptide substrate; mean ± SD of at least three measurements; read-out: IC50 (nM) (rPfSUB1)
T1 construct: Chymotrypsin-treated rPfSUB1 (expressed and purified as described previously); made in house
From the text: We previously described the development of a fluorescence-based in vitro assay suitable for the evaluation of substrate-based PfSUB1 inhibitors, using recombinant PfSUB1 (rPfSUB1) and fluorogenic peptide substrates based on cleavage sites within endogenous protein substrates of PfSUB1 ([13], [21]). […] This was perhaps unsurprising due to the high molecular mass and polar nature of these compounds, including the presence of a carboxylic acid moiety that was designed to mimic endogenous PfSUB1 protein substrates by interacting with the basic S’ surface of the PfSUB1 active-site cleft ([16]). Collectively, these features likely rendered the compounds poorly membrane penetrant.
Fluorescence of this peptide is quenched by rhodamine dimerization in the intact substrate but increases upon cleavage at the internal Q-D bond. Chymotrypsin-treated rPfSUB1 (expressed and purified as described previously ([16]) was stored at −80 °C as a 228 U/mL stock in 20 mM Tris–HCl pH 8.2, 150 mM NaCl, 10% glycerol, and diluted for use (1:500 or 1:600) in reaction buffer (20 mM Tris–HCl pH 8.2, 150 mM NaCl, 12 mM CaCl2, 25 mM CHAPS). Peptidic boronic acid inhibitors were dissolved in 100% DMSO at 10 or 20 mM, then further diluted in DMSO to generate stock solutions ranging from 500 to 0.01 μM and then used diluted 1:100 in the enzyme reactions. All reactions were performed in wells of white 96-well microwell plates (Nunc); 50 μL diluted rPfSUB1 was preincubated for 5 min with 1 μL each of the serially diluted boronic acid inhibitors, followed by addition of 50 μL substrate solution (0.1 μM final). Subsequent fluorescence increase was continuously monitored using a SpectraMax M5e plate reader and SoftMax Pro-6.3 software, with readings taken every 5 min for 60 min using excitation and emission values of 552 and 580 nm, respectively. […] All experiments were performed in duplicate.

[2] = test system: asexual blood-stage P. falciparum (clone 3D7); assay: SYBR Green I parasite growth assay; assay type: cell-based, Plasmodium falciparum
Method: The impact of the peptidic boronic acids on replication of asexual blood-stage P. falciparum (clone 3D7) was assessed using a SYBR Green I assay, essentially as described by Smilkstein et al. ([22]). Briefly, test compounds (dissolved in dimethyl sulfoxide [DMSO] at concentrations ranging from 4 mM to 5 μM) were added in triplicate to wells of flat bottomed, 96-well microtitre plates (1 μL per well). Wells were then supplemented with 100 μL per well of a P. falciparum parasite culture at 0.1% parasitaemia, 1% hematocrit. Each assay plate also included DMSO-only control wells (1% vol/vol), as well as additional control wells containing uninfected RBCs only. Plates were incubated in sealed, humidified gassed chambers at 37 °C for 96 h to allow the parasites to undergo two entire cycles of erythrocytic growth. Wells were then supplemented with 100 μL 1:5,000 dilution of stock SYBR Green I (Life Technologies, catalog no. S7563) diluted in 20 mM Tris HCl pH 7.5, 5 mM EDTA, 0.008% (weight/vol) saponin, 0.08% (vol/vol) Triton ×100. Plates were agitated to mix, incubated for a further 1 h in the dark at room temperature, then 150 μL samples from each well transferred to a fresh white microwell plate and fluorescence quantified using a SpectraMax M5e plate reader and SoftMax Pro-6.3 software (Ex 485 nm/Em 530 nm). IC50 values were determined from dose–response curves obtained after subtracting background fluorescence values (obtained from the RBC-only wells) from all experimental readings.

[3] = test system: P. falciparum 3D7 schizonts; assay: Short-term egress/invasion assay, ring formation by flow cytometry; assay type: cell-based, Plasmodium falciparum
Method: For this, P. falciparum cultures containing synchronous, highly mature schizonts were supplemented with compounds 3b, 3e, 3i, and 3j at a range of dilutions, then allowed to undergo egress and invasion for just 4 h in the continued presence of the compounds, before assessing formation of newly invaded “ring” stage parasites by flow cytometry.
(§1) Short-term egress, invasion, and washout assays were performed essentially as described previously ([27], [28], [42]). Briefly, highly synchronous mature Percoll-enriched schizonts with or without added fresh RBCs (∼5% parasitaemia final) were incubated with compounds under test or vehicle only (DMSO, 1% vol/vol). For washout assays, schizonts were treated with C2 or various concentrations of inhibitor 3j for 1 to 4 h, then washed extensively (at least four times) prior to addition to fresh RBCs where required. After incubation at 37 °C for just 1 to 4 h (or overnight for invasion assays) to allow schizont rupture, cells were pelleted. Clarified culture supernatants were assessed for extent of hemoglobin release (a measure of schizont rupture) by absorption spectroscopy at 415 nm as described previously ([28]) or analyzed by Western blot using antibodies against SERA5 ([7], [11]). To quantify generation of new rings, samples of the cultures were fixed with 4% paraformaldehyde/0.02% glutaraldehyde and stained with SYBR Green I (Life Technologies) and then analyzed by flow cytometry on a BD FACSVerse using BD FACSuite software. Data were analyzed using FlowJo software. All cultures were also routinely analyzed by microscopic examination of Giemsa-stained thin films to visually assess parasite morphology.

P. falciparum schizonts = assay: Ring formation after pretreatment of schizonts and washout; assay type: cell-based, Plasmodium falciparum; settings: pretreated schizonts washed, fresh RBCs, assessed at 24 h; 3j 10 μM, C2 1 μM
Method: as §1

T1 sequence (Q8I0V0 218-688): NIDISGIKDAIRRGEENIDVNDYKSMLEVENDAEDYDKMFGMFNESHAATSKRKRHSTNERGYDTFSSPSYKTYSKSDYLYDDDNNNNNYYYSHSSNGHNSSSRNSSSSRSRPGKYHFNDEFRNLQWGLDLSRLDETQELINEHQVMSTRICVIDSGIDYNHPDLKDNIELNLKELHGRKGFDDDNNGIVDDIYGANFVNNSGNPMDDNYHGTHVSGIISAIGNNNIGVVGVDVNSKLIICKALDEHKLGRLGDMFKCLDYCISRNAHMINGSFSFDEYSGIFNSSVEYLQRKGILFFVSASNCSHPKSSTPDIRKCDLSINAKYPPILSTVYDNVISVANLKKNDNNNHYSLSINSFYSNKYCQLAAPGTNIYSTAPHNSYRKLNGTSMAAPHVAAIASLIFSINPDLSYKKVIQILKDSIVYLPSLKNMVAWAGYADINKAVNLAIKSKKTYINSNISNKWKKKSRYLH

CC(=O)NC(C(=O)NC(C(=O)NCC(=O)NC(C)B(O)O)C(C)C)C1CCCC1 (centres unmarked) [3j]
elastase IC50 relative to that for PfSUB1 (elastase): > 100 fold
IC50 [1]: ~5.7 nM and 5.7 nM
EC50 ([2]; Plasmodium falciparum, 3D7, 96 h, two erythrocytic growth cycles, SYBR Green I): 0.26 ± 0.06 µM
improved growth inhibitory potency ([2]; relative to compound 3b): ~10 fold
higher potency in long-term growth assay ([2]; relative to short-term egress assays): ~10 fold
schizont phenotype in Giemsa-stained thin films ([3]; 10 μM, 4 h incubation): arrest of unruptured schizonts with no ring formation
EC50 ([3]; Plasmodium falciparum, mature 3D7 schizonts with RBCs, 4 h, flow cytometry): 2500 ± 300 nM
ring production after washout (P. falciparum schizonts): No rings were produced
